Measurements as given in ChEMBL document CHEMBL1201862, “PubChem BioAssay data set” (2004).
Activity calls are given as the source filed them.

Experiments:
[1] = target: Adenosylmethionine-8-amino-7-oxononanoate aminotransferase (Mycobacterium tuberculosis, UniProt P9WQ81); experiment: Mycobacterium tuberculosis BioA enzyme inhibitor Measured in Biochemical System Using Plate Reader - 2163-02_Inhibitor_Dose_CherryPick_Activity.; type: functional, Mycobacterium tuberculosis UT205
[2] = target: Ras and Rab interactor 1/Tyrosine-protein kinase ABL1 (Homo sapiens, UniProt P00519+Q13671); type: functional;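 also: biochemical TR-FRET dose-response test measuring inhibition of binding between Rin1 and Abl proteins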
[3] = target: T1, Histone-lysine N-methyltransferase NSD2 (Homo sapiens, UniProt O96028); type: biochemical
T1 sequence (O96028 whole entry): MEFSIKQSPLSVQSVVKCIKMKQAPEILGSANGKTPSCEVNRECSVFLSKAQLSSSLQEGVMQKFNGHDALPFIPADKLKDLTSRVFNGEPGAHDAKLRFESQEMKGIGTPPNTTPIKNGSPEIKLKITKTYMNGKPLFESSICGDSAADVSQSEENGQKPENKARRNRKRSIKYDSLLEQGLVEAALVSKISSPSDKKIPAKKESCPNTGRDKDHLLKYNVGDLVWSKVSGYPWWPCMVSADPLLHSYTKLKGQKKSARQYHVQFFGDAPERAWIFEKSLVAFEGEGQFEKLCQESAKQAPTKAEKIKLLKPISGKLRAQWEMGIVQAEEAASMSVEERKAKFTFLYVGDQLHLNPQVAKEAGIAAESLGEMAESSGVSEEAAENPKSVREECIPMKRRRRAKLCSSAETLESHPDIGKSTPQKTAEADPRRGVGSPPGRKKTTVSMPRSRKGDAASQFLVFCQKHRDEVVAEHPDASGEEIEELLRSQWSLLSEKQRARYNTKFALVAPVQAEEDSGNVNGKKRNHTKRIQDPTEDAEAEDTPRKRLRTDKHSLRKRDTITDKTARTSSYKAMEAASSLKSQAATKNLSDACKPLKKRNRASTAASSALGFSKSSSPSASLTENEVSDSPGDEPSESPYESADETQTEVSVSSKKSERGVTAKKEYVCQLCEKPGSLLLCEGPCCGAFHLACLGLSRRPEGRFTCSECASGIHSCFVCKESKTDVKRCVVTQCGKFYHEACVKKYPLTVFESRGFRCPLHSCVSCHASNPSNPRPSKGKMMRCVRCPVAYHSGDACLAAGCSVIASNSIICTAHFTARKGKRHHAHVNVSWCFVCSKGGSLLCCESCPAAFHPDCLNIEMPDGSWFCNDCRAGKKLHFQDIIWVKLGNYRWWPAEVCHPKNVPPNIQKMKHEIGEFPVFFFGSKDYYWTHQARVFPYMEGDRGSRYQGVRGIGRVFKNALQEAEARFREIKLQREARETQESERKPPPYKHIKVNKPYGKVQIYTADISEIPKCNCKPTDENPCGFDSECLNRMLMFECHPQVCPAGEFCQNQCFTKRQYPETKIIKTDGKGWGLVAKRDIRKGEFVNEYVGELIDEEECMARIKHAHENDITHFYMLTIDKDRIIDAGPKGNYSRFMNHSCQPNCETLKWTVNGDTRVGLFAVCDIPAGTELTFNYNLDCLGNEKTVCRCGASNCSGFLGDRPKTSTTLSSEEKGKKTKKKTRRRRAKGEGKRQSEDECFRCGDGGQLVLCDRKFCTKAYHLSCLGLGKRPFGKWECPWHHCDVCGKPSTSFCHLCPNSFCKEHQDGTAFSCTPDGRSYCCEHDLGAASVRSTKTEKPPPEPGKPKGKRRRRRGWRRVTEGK

CHO-K1 = experiment: (§1) Counterscreen for antagonists of the orexin 1 receptor (OX1R; HCRTR1): Homogeneous time resolved fluorescence (HTRF)-based cell-based dose response assay to identify antagonists of the parental CHO-K1 cell line. [Related pubchem assays (depositor defined):AID434989, AID435008, AID463079, AID485270, AID492963, AID492964, AID492965, AID493232, AID504699, AID504701]; type: functional; details: Cricetulus griseus
[4] = as §1, with “Fluorescence-based” for “Homogeneous time resolved fluorescence (HTRF)-based”, “cell-based high throughput” for “cell-based”, “CHO” for “CHO-K1”; type: functional
[5] = target: T2, Orexin/Hypocretin receptor type 1 (Homo sapiens, UniProt O43613); experiment: Homogeneous Time Resolved Fluorescence (HTRF)-based cell-based high throughput dose response assay for antagonists of the orexin 1 receptor (OX1R; HCRTR1). [Related pubchem assays (depositor defined):AID434989, AID435008, AID463079, AID485270, AID492963, AID492964, AID492965, AID493232, AID504717, AID504718]; type: functional
T2 sequence (O43613 whole entry): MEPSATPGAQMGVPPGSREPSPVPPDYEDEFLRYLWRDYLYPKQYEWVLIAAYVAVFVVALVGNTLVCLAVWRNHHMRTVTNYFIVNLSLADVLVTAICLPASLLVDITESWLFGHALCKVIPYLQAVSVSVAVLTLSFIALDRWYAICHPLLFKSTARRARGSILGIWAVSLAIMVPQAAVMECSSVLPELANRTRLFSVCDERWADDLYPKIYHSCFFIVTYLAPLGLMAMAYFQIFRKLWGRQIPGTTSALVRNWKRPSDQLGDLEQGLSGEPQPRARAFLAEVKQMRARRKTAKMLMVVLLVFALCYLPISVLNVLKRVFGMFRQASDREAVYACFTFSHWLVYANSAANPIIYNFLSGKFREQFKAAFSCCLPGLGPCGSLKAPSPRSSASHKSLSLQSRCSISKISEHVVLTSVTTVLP

[6] = target: T2, Orexin/Hypocretin receptor type 1; experiment: Fluorescence-based cell-based high throughput dose response assay for antagonists of the orexin 1 receptor (OX1R; HCRTR1). [Related pubchem assays (depositor defined):AID434989, AID435008, AID463079, AID485270, AID492963, AID492964, AID492965, AID493232, AID504717, AID504718]; type: functional
Orexin receptor type 2 [7] = target: T3, Orexin receptor type 2 (Homo sapiens, UniProt O43614); experiment: Counterscreen assay for antagonists of the orexin 1 receptor (OX1R; HCRTR1): Fluorescence-based cell-based dose response assay for antagonists of the orexin 2 receptor (OX2R; HCRTR2), run by assay provider.; type: functional
T3 sequence (O43614 whole entry): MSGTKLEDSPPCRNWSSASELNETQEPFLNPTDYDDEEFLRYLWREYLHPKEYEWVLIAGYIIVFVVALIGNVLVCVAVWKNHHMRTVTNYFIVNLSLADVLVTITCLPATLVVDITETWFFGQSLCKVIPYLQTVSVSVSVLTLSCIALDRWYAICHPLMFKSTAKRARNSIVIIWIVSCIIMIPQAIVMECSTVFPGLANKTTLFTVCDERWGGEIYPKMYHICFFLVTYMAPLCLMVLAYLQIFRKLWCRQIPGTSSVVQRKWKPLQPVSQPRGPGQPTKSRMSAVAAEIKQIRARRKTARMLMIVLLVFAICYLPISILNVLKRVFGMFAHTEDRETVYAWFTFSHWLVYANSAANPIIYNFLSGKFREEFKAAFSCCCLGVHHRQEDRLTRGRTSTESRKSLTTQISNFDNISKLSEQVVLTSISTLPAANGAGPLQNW

Orexin receptor type 2 [8] = target: T3, Orexin receptor type 2; experiment: Counterscreen assay for antagonists of the orexin 1 receptor (OX1R; HCRTR1): Homogeneous Time Resolved Fluorescence (HTRF)-based cell-based dose response assay for antagonists of the orexin 2 receptor (OX2R; HCRTR2), run by assay provider.; type: functional
[9] = blockers of HIV-1 envelope-mediated cell-cell fusion – cherry-pick, dose response (AID 652057); type: functional, cell-based
[10] = HIV-1 AD8 envelope cell-cell fusion blockers – cherry-pick, dose response (AID 652062); type: functional, cell-based;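 also: luciferase signal from cell-cell fusion driven by HIV-1 clade B AD8 Env; potency is for inhibitors of fusion seen as a drop in luminescence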
[11] = luciferase reporter signal suppression in cells – H4 neuroglioma cells, luminescence, dose response (AID 1990); type: functional, cell-based
[12] = Luminescence Cell-Based Dose Response HTS to Identify Inhibitors of 5'UTR Stem-Loop Driven Prion Protein mRNA Translation in H4 Neuroglioblastoma Cells. [Related pubchem assays: 1827 (Project Summary), 1813 (Primary HTS)]; type: functional
[13] = alpha-synuclein stem-loop luciferase translation blockers – H4 neuroglioma cells, luminescence, confirmation (AID 1988); type: functional, cell-based
[14] = inhibition of ARNT PAS-B/TACC3 complex formation – biochemical, AlphaScreen, cherry-picked samples, confirmation (AID 651703); type: functional, Homo sapiens;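 also: His-tagged ARNT PAS-B domain paired with GST-TACC3 E629A dimer coactivator fragment; potency of inhibitors that break up the complex and lower AlphaScreen signal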
[15] = target: T4, Mannose-6-phosphate isomerase (Homo sapiens, UniProt P34949); experiment: MPI inhibition at elevated mannose 6-phosphate – biochemical, fluorescence intensity, high mannose 6-phosphate, primary screen (AID 1220)
T4 sequence (P34949 whole entry): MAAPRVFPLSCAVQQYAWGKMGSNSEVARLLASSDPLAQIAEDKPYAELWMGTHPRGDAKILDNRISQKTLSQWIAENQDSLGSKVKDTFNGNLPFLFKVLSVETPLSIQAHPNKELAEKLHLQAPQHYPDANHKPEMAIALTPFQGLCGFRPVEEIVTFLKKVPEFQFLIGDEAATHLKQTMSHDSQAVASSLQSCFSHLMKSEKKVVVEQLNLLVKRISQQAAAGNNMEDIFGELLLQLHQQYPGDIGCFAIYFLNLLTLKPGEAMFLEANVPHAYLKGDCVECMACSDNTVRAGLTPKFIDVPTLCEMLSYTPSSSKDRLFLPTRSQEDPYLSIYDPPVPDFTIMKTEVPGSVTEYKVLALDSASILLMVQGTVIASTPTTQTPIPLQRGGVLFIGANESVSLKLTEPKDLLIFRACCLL

[16] = target: Glucose-6-phosphate 1-dehydrogenase (Homo sapiens, UniProt P11413); experiment: inhibition of Homo sapiens G6PD, dose series – biochemical, fluorescence, selectivity assay for P. falciparum G6PD inhibitor project, dose response (AID 504792); type: functional
[17] = target: Hepatocyte nuclear factor 4-alpha (Homo sapiens, UniProt P41235); type: functional, cell-based;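 also: biochemical luminescence-based dose-response counterscreen measuring inhibition of HNF4 dimerization, run alongside a screen for blockers of ABHD5–perilipin-5 interaction; split luciferase complementation of HNF4 fusion proteins in cell lysate measuring dimerization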
Melanocortin receptor 4 [18] = target: T5, Melanocortin receptor 4 (Homo sapiens, UniProt P32245); experiment: inhibitors of MC4R cAMP signaling – cell-based, TR-FRET, biased antagonists, dose response (AID 602298); type: functional;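 also: antagonist potency against agonist-stimulated cAMP production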
[19] = cAMP pathway inhibition in counterscreen cell line – TR-FRET cAMP detection, counter-screen for MC4R biased antagonist project, dose response (AID 602305); type: functional, cell-based;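 also: U2OS cells stimulated with forskolin near its EC80 as the cAMP inducer; potency is for inhibition of forskolin-stimulated cAMP signaling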
HEK293 = experiment: EBV LMP1 TES2 canonical NF-kB signalling blockers – cell-based, HEK293, luciferase, cherry-pick, dose response (AID 588343); type: functional; details: Homo sapiens
Interleukin-8 [20] = target: T6, Interleukin-8 (Homo sapiens, UniProt P10145); experiment: Dose Response confirmation of uHTS small molecule hits for cystic fibrosis induced NFkb Inhibitors in a TNFa-induced IL8 counterscreen.; type: functional; details: read-out: IC50_Mean
T6 sequence (P10145 whole entry): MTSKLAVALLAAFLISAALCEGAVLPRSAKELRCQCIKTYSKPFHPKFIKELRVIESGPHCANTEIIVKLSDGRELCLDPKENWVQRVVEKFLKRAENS

Interleukin-8 [21] = target: T6, Interleukin-8; experiment: Dose Response confirmation of uHTS small molecule hits for cystic fibrosis induced NFkb Inhibitors in a PAF-induced IL8 counterscreen.; type: functional; details: read-out: IC50_Mean
[22] = target: Mitogen-activated protein kinase 10 (Homo sapiens, UniProt P53779); experiment: Dose response biochemical screening assay for inhibitors of c-Jun N-Terminal Kinase 3 (JNK3). [Related pubchem assays: 746 ]
Melanocortin receptor 4 [23] = target: T5, Melanocortin receptor 4; type: functional, cell-based

T5 sequence (P32245 whole entry): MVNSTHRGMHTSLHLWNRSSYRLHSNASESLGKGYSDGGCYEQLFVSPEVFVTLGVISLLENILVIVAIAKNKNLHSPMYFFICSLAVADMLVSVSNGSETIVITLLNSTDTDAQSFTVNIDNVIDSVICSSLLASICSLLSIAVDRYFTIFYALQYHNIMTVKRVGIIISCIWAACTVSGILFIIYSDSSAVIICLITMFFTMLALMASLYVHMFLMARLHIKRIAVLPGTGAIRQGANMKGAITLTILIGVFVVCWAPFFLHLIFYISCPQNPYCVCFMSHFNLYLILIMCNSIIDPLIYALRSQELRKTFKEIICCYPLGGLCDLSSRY
Sequence of Hepatocyte nuclear factor 4-alpha (P41235 whole entry, the tested form may be a part): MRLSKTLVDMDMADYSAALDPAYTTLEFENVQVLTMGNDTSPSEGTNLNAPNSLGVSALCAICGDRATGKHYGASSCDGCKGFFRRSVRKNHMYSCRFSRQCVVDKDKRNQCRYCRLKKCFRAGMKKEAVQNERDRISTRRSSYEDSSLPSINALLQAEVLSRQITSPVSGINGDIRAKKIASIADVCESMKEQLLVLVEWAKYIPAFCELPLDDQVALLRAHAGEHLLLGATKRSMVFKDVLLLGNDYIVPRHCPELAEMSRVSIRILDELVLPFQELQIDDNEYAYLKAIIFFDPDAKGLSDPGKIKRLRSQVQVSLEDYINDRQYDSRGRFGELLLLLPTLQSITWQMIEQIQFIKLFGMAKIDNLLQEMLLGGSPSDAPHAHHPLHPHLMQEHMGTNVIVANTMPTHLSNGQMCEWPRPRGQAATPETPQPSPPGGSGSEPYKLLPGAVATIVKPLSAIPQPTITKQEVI
Sequence of Adenosylmethionine-8-amino-7-oxononanoate aminotransferase (P9WQ81 whole entry): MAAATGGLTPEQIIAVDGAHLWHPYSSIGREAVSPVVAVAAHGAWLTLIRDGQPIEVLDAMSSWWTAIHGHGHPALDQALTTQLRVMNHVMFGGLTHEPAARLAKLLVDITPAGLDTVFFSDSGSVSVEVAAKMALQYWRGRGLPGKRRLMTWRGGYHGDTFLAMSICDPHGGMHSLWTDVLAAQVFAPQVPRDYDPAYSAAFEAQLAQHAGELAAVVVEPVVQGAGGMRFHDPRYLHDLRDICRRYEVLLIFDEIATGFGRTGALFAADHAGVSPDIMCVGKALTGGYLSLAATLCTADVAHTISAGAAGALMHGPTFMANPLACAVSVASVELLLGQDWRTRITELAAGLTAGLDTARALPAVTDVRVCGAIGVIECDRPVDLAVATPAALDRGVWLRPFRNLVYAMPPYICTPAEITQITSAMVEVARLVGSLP
Sequence of Glucose-6-phosphate 1-dehydrogenase (P11413 whole entry, the tested form may be a part): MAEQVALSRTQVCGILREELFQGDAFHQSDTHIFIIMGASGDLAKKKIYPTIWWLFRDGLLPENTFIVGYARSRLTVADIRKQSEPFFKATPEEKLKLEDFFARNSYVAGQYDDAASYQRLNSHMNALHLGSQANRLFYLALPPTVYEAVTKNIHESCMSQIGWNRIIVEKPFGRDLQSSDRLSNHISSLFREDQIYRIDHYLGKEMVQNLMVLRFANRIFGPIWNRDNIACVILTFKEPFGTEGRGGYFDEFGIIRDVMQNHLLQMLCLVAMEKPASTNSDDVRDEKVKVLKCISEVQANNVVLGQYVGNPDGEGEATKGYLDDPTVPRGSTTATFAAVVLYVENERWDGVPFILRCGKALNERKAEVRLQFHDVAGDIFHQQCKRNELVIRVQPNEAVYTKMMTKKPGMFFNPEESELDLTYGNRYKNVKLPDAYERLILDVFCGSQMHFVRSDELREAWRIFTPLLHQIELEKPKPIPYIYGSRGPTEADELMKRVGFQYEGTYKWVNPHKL
Sequence of Mitogen-activated protein kinase 10 (P53779 whole entry): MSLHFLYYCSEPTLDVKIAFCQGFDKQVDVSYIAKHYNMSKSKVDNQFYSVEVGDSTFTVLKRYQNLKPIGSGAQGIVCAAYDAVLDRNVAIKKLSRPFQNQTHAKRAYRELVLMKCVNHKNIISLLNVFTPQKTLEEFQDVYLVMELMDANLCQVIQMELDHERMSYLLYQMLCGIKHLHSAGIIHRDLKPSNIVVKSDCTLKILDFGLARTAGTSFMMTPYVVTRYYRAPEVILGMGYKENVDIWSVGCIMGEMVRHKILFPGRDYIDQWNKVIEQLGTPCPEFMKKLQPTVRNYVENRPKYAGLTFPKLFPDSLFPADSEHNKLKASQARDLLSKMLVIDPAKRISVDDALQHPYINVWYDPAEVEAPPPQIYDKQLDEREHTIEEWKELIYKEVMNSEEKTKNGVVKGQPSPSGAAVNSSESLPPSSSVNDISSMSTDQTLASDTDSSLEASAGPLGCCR
Sequence of Ras and Rab interactor 1/Tyrosine-protein kinase ABL1 (P00519 whole entry): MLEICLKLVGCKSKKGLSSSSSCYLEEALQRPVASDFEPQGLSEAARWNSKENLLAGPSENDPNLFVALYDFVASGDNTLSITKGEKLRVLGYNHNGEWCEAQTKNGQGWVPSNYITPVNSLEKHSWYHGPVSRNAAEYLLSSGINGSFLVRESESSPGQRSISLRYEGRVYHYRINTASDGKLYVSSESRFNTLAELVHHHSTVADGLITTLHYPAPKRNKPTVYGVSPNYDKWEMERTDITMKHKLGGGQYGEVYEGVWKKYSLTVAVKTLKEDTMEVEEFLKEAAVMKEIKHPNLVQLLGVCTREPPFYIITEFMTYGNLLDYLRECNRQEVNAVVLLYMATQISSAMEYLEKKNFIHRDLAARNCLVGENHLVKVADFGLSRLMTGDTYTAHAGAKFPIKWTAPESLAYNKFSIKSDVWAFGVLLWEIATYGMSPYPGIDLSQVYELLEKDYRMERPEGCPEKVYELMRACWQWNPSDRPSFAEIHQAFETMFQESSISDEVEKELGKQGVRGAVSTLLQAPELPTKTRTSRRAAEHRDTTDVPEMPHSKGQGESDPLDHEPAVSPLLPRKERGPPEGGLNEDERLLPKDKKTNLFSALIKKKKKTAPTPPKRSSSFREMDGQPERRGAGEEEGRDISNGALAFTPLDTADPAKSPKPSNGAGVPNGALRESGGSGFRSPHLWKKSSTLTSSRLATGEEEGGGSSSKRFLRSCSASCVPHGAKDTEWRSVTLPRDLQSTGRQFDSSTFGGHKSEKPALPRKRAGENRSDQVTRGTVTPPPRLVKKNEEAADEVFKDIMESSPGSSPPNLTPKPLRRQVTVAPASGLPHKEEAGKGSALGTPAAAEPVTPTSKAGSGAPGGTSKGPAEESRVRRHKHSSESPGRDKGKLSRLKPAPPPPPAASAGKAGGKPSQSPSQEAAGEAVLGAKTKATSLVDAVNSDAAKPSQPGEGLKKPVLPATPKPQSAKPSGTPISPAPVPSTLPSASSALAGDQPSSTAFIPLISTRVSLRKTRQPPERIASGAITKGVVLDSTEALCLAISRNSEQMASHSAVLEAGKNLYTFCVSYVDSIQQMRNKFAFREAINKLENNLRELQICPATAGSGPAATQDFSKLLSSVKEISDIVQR
Sequence of Ras and Rab interactor 1/Tyrosine-protein kinase ABL1 (Q13671 whole entry): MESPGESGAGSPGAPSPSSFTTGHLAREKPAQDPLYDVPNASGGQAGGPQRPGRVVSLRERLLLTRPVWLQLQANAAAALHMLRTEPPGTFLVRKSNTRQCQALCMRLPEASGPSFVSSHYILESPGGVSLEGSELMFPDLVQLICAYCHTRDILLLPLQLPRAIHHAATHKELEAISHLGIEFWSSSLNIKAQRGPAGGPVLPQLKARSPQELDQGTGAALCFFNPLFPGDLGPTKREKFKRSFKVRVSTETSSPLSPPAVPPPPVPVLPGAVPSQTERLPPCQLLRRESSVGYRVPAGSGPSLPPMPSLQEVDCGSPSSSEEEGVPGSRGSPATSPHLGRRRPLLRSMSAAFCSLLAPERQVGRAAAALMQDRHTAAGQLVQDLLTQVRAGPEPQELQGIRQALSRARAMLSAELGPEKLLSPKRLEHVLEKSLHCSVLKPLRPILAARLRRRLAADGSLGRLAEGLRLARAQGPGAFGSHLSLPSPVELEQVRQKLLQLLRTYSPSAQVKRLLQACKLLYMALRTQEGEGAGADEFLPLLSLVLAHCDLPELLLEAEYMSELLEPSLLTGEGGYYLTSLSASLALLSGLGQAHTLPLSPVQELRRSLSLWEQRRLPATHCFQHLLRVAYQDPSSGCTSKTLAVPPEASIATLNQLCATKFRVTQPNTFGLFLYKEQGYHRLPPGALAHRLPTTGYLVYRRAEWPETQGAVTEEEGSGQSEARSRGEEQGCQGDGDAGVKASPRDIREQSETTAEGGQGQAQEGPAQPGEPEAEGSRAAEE

COc1cc(OC)c(C(=O)Nc2cccnc2)cc1OC
AC50 [1]: 1.81 µM (active)

CCOC(=O)CCCCC(=O)c1[nH]c(O)nc1CSc1nc(C)cc(O)n1
IC50 [2]: 0.192 µM (active)
AC50 [3]: 8.18 µM (active)

O=S(=O)(NC1CC1)c1ccc(S(=O)(=O)N2CCCc3ccccc32)cc1
IC50 (CHO-K1): > 66.2 µM (inactive)
IC50 [4]: 18.2 µM (inactive)
IC50 [5]: 6.71 µM (active)
IC50 [6]: 6.07 µM (active)
IC50 (Orexin receptor type 2 [7]): > 88.8 µM (inactive)
IC50 (Orexin receptor type 2 [8]): 6.62 µM (active)
AC50 [9]: 28.3 µM (active)
AC50 [10]: 16.9 µM (active)

O=C(c1ccc(Br)s1)N1CCN(Cc2ccc3c(c2)OCO3)CC1
AC50 [1]: 1.64 µM (active)

O=C(NCCCn1ccnc1)C(=O)NCC1OCCCN1S(=O)(=O)c1ccccc1 (centres undefined)
EC50 [11]: > 120 µM (not active)
EC50 [12]: 17.5 µM (active)
EC50 [13]: > 120 µM (not active)
AC50 [14]: 80 µM (active)

CC1=CC(C)(C)Nc2ccc(OC(=O)CN3C(=O)c4cccc5cccc(c45)C3=O)cc21
IC50 [15]: 33 µM (active)
IC50 [16]: 64.2 µM (inactive)
IC50 [17]: 6.95 µM (active)

O=C1OCCC1Sc1nc2cc(Cl)ccc2n1Cc1ccccc1 (centres undefined)
IC50 (Melanocortin receptor 4 [18]): > 64.6 µM (inactive)
IC50 [19]: > 64.6 µM (inactive)

N#CC(C#N)c1ccnc2ccccc12
AC50 (HEK293): 11.5 µM (active)
IC50 (Interleukin-8 [20]): 40.4 µM (inactive)
IC50 (Interleukin-8 [21]): > 79 µM (inactive)

O=C(NC1CCCCC1)C(c1ccnc2ccccc12)n1c(=O)c(-c2ccco2)nc2ccccc21 (centres undefined)
IC50 [17]: 2.23 µM (active)

COc1cccc(OP(=O)(Nc2ccccc2)Oc2cccc(OC)c2)c1
IC50 (CHO-K1): > 66.2 µM (inactive)
IC50 [4]: > 49.7 µM (inactive)
IC50 [5]: 9.26 µM (active)
IC50 [6]: 14.5 µM (inactive)
IC50 (Orexin receptor type 2 [7]): > 88.8 µM (inactive)
IC50 (Orexin receptor type 2 [8]): > 50 µM (inactive)

Cc1cc2nccc(-c3ccc(Cl)c([N+](=O)[O-])c3)n2n1
IC50 (Melanocortin receptor 4 [18]): > 64.6 µM (inactive)
IC50 [19]: > 64.6 µM (inactive)

CCn1c(C)cs/c1=N/C(=O)c1ccccc1O
IC50 [22]: 40.7 µM (not active)
IC50 (CHO-K1): > 66.3 µM (inactive)
IC50 [4]: > 49.8 µM (inactive)
IC50 [5]: 2.69 µM (active)
IC50 [6]: 7.37 µM (active)
IC50 (Orexin receptor type 2 [7]): > 88.8 µM (inactive)
IC50 (Orexin receptor type 2 [8]): > 50 µM (inactive)

CCn1c(=O)c2c(cnn2C)c2ccccc21
AC50 (HEK293): 35.3 µM (active)
IC50 (Interleukin-8 [20]): > 79 µM (inactive)
IC50 (Interleukin-8 [21]): 46.2 µM (inactive)

Cc1ccccc1-c1nc(-c2ccc(NC(=O)c3ccc4c(c3)OCO4)cc2)no1
EC50 (Melanocortin receptor 4 [23]): > 89.1 µM (inactive)
